Measured values as given in patent US8546608B2, “Proteasome inhibitors and methods of using the same” (Cephalon, Inc., priority 2003, dated 2013).

Experiments:
[1] = target: T1, proteasome in Molt-4 cells (human leukemia) (Homo sapiens, UniProt P20618+P28074); type: cell-based; conditions: assay of Example E, inhibition of MOLT4; read-out: MOLT4 (EC50)
T1 sequence (P28074 60-263): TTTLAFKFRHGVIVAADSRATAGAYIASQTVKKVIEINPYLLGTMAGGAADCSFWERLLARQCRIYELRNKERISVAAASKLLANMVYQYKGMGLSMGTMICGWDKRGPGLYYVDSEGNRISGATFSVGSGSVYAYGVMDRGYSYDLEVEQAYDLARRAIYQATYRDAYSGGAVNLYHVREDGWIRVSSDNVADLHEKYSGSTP
T1 sequence (P20618 29-241): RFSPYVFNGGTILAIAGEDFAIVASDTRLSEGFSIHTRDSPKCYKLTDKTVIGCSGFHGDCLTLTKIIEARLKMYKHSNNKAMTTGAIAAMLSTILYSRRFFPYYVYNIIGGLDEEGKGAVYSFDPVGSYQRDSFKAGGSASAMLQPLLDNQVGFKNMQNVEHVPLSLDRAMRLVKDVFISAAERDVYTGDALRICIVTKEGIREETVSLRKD
Procedure, shortened: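 Intact Molt-4 cells (6×10^6 cells/mL) in HEPES-buffered saline were preincubated with inhibitor 15 min at 37 °C, then given cell-permeable MeOSuc-FLF-AFC at 25 μM final.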

[2] = target: T2, 20S Human Erythrocyte Proteasome (HEP) (Homo sapiens, UniProt P20618+P28074); assay: Chymotrypsin-like activity of 20S Human Erythrocyte Proteasome (HEP), IC50 determination; type: biochemical; conditions: assay of Example C, inhibition of HEP
T2 construct: 20S Human Erythrocyte Proteasome (HEP), purchased from Immatics Biotechnologies Inc; purchased Immatics Biotechnologies Inc., Tübingen, Germany; host or cells: human erythrocytes (natural source)
Procedure, shortened: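 20S proteasome at 0.2 μg/mL (about 0.6 nM catalytic sites) in 20 mM Tris with 0.04% SDS, preincubated 15 min at 37° C with inhibitor before Suc-LLVY-AMC (100 μM final). AMC fluorescence read in the linear range; triplicates, IC50 from concentration series.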

| EC50 [1] [nM] | IC50 [2] [nM] | Structure (SMILES) |
| --- | --- | --- |
| < 200 | < 10 | CCCCCCCCCCCCC(=O)N[C@H](C(=O)N[C@@H](CC(C)C)B1O[C@@H]2C[C@@H]3C[C@@H](C3(C)C)[C@]2(C)O1)[C@@H](C)O [D.8.5, Tridecanamide, N-[(1S,2R)-1-[[[(1R)-1-[(3aS,4S,6S,7aR)-hexahydro-3a,5,5-trimethyl-4,6-methano-1,3,2-benzodioxaborol-2-yl]-3-methylbutyl]amino]carbonyl]-2-hydroxypropyl]] |
| < 200 | < 10 | CC(C)C[C@H](NC(=O)[C@@H](NC(=O)c1ccc(-c2ccccc2)cc1)[C@@H](C)O)B1O[C@@H]2C[C@@H]3C[C@@H](C3(C)C)[C@]2(C)O1 [D.8.6, 4-Phenylbenzamide, N-[(1S,2R)-1-[[[(1R)-1-[(3aS,4S,6S,7aR)-hexahydro-3a,5,5-trimethyl-4,6-methano-1,3,2-benzodioxaborol-2-yl]-3-methylbutyl]amino]carbonyl]-2-hydroxypropyl]] |
| 200 to 2000 | < 100 | CC(C)C[C@H](NC(=O)[C@H](CC(N)=O)NC(=O)c1cnccn1)B1O[C@@H]2C[C@@H]3C[C@@H](C3(C)C)[C@]2(C)O1 [D.8.18, 2-Pyrazinecarboxamide, N-[(1S)-1-[[[(1R)-1-[(3aS,4S,6S,7aR)-hexahydro-3a,5,5-trimethyl-4,6-methano-1,3,2-benzodioxaborol-2-yl]-3-methylbutyl]amino]carbonyl]-2-carbamoylethyl]] |
| < 200 | < 10 | CCCCCCCCCC(=O)N[C@@H](CC(N)=O)C(=O)N[C@@H](CC(C)C)B1O[C@@H]2C[C@@H]3C[C@@H](C3(C)C)[C@]2(C)O1 [D.8.19, Decanamide, N-[(1S)-1-[[[(1R)-1-[(3aS,4S,6S,7aR)-hexahydro-3a,5,5-trimethyl-4,6-methano-1,3,2-benzodioxaborol-2-yl]-3-methylbutyl]amino]carbonyl]-2-carbamoylethyl]] |
| < 200 | < 10 | CCCCc1ccc(C(=O)N[C@@H](CC(N)=O)C(=O)N[C@@H](CC(C)C)B2O[C@@H]3C[C@@H]4C[C@@H](C4(C)C)[C@]3(C)O2)cc1 [D.8.20, 4-Butylbenzamide, N-[(1S)-1-[[[(1R)-1-[(3aS,4S,6S,7aR)-hexahydro-3a,5,5-trimethyl-4,6-methano-1,3,2-benzodioxaborol-2-yl]-3-methylbutyl]amino]carbonyl]-2-carbamoylethyl]] |
| < 200 | < 10 | CCCCCCCCCC(=O)N[C@@H](CNC(=O)c1ccc(C)cc1)C(=O)N[C@@H](CC(C)C)B1O[C@@H]2C[C@@H]3C[C@@H](C3(C)C)[C@]2(C)O1 [D.9, Decanamide, N-[(1S)-1-[[[(1R)-1-[(3aS,4S,6S,7aR)-hexahydro-3a,5,5-trimethyl-4,6-methano-1,3,2-benzodioxaborol-2-yl]-3-methylbutyl]amino]carbonyl]-2-[(4-methylbenzoyl)amino]ethyl]-] |
| < 200 | < 10 | CCCCCCCCCC(=O)N[C@@H](CNC(=O)Cc1ccc(OC)c(OC)c1)C(=O)N[C@@H](CC(C)C)B1O[C@@H]2C[C@@H]3C[C@@H](C3(C)C)[C@]2(C)O1 [D.12, 2-S-Decanoylamino-3-(3,4-dimethoxyphenylacetamido)propionamide, N-[(1S)-1-[[(1R)-1-[(3aS,4S,6S,7aR)-hexahydro-3a,5,5-trimethyl-4,6-methano-1,3,2-benzodioxaborol-2-yl]-3-methylbutyl]amino]carbonyl]] |
| < 200 | < 10 | CCCCc1ccc(C(=O)N[C@@H](CNC(=O)c2cnccn2)C(=O)N[C@@H](CC(C)C)B2O[C@@H]3C[C@@H]4C[C@@H](C4(C)C)[C@]3(C)O2)cc1 [D.18, 2-S-(4-Butylbenzoylamino)-3-(2-pyrazinocarbonylamino)-N-[(1S)-1-[[(1R)-1-[(3aS,4S,6S,7aR)-hexahydro-3a,5,5-trimethyl-4,6-methano-1,3,2-benzodioxaborol-2-yl]-3-methylbutyl]amino]carbonyl]] |
| < 200 | < 10 | CCCCc1ccc(C(=O)N[C@@H](CNS(=O)(=O)c2ccc(F)cc2)C(=O)N[C@@H](CC(C)C)B2O[C@@H]3C[C@@H]4C[C@@H](C4(C)C)[C@]3(C)O2)cc1 [D.19, 4-Butylbenzamide, N-[(1S)-1-[[[(1R)-1-[(3aS,4S,6S,7aR)-hexahydro-3a,5,5-trimethyl-4,6-methano-1,3,2-benzodioxaborol-2-yl]-3-methylbutyl]amino]carbonyl]-2-[4-fluoro-benzenesulfonammide]ethyl]-] |
| < 200 | < 10 | CCCCc1ccc(C(=O)N[C@@H](CNC(=O)c2cccs2)C(=O)N[C@@H](CC(C)C)B2O[C@@H]3C[C@@H]4C[C@@H](C4(C)C)[C@]3(C)O2)cc1 [D.24.8, 4-butylbenzamide, N-[(1S)-1-[[[(1R)-1-[(3aS,4S,6S,7aR)-hexahydro-3a,5,5-trimethyl-4,6-methano-1,3,2-benzodioxaborol-2-yl]-3-methylbulyl]amino]carbonyl]-2-[(thien-2-ylcarbonyl)amino]ethyl]-] |
| < 200 | < 10 | CCCCCC(=O)NC[C@H](NC(=O)c1ccc(CCCC)cc1)C(=O)N[C@@H](CC(C)C)B1O[C@@H]2C[C@@H]3C[C@@H](C3(C)C)[C@]2(C)O1 [D.24.10, 4-butylbenzamide, N-[(1S)-1-[[[(1R)-1-[(3aS,4S,6S,7aR)-hexahydro-3a,5,5-trimethyl-4,6-methano-1,3,2-benzodioxaborol-2-yl]-3-methylbutyl]amino]carbonyl]-2-(hexanonylamino)ethyl]-] |
| < 200 | < 10 | CCCCc1ccc(C(=O)N[C@@H](CNC(=O)C2CC2)C(=O)N[C@@H](CC(C)C)B2O[C@@H]3C[C@@H]4C[C@@H](C4(C)C)[C@]3(C)O2)cc1 [D.24.11] |
| < 200 | < 10 | CCCCc1ccc(C(=O)N[C@@H](CNC(=O)Nc2ccccc2)C(=O)N[C@@H](CC(C)C)B2O[C@@H]3C[C@@H]4C[C@@H](C4(C)C)[C@]3(C)O2)cc1 [D.24.12, 4-Butylbenzamide, N-[(1S)-1-[[[(1R)-1-[(3aS,4S,6S,7aR)-hexahydro-3a,5,5-trimethyl-4,6-methano-1,3,2-benzodioxaborol-2-yl]-3-methylbutyl]amino]carbonyl]-2-(3-phenyl-ureido)ethyl]-] |
| < 200 | < 10 | CCCCc1ccc(C(=O)N[C@@H](CNC(=O)Cc2ccc(OC)c(OC)c2)C(=O)N[C@@H](CC(C)C)B2O[C@@H]3C[C@@H]4C[C@@H](C4(C)C)[C@]3(C)O2)cc1 [D.24.14] |
| < 200 | < 10 | CCCCc1ccc(C(=O)N[C@@H](CNC(=O)c2cccnc2)C(=O)N[C@@H](CC(C)C)B2O[C@@H]3C[C@@H]4C[C@@H](C4(C)C)[C@]3(C)O2)cc1 [D.24.15, 4-butylbenzamide, N-[(1S)-1-[[[(1R)-1-[(3aS,4S,6S,7aR)-hexahydro-3a,5,5-trimethyl-4,6-methano-1,3,2-benzodioxaborol-2-yl]-3-methylbutyl]amino]carbonyl]-2-(nicotinonylamino)ethyl]-] |
| > 10000 | < 10 | CCOC(=O)/C=C/C(=O)N[C@@H](CCCNC(=N)N[N+](=O)[O-])C(=O)N[C@@H](CC(C)C)B(O)O [E.1.1, Boronic acid, [(1R)-1-[[(2S)-5-[[imino(nitroamino)methyl]amino]-2-[((2E)-3-ethoxycarbonyl-1-oxoprop-2-enyl)amino]-1-oxopentyl]amino]-3-methylbutyl]] |
